Laboratory results taken from patent US20260022143A1, “Cyclic Peptide Inhibitors of IL-23” (JANSSEN PHARMACEUTICA NV, priority 2022, published 2026).
Structures can show the parent of a compound that is named as a salt. Positions of bridges follow the written chain, without caps; N, C: chain ends. Non-standard residues stand in square brackets, D forms with d. Residues, ends and D or L forms follow the SMILES beside them. *: point of attachment. Me3N+(CH2)2O(CH2)2O(CH2)2CO = C[N+](C)(C)CCOCCOCCC(=O)*; Trp(7-CF3) = N[C@@H](Cc1c[nH]c2c(C(F)(F)F)cccc12)C(=O)O; Trp(7-Me) = Cc1cccc2c(C[C@H](N)C(=O)O)c[nH]c12; Hexanoyl(6-NMe3+) = C[N+](C)(C)CCCCCC(=O)*; X83 = CN(CCC[N+](C)(C)CCCC[N+](C)(C)C)CC*; X9 = COCCOCCOCC[N+](C)(C)CCc1cn(CC*)nn1; 2Nal = N[C@@H](Cc1ccc2ccccc2c1)C(=O)O; AEF = NCCOc1ccc(C[C@H](N)C(=O)O)cc1; 3Pal = N[C@@H](Cc1cccnc1)C(=O)O; Lys(Me) = CNCCCC[C@H](N)C(=O)O; Pen = CC(C)(S)[C@H](N)C(=O)O; X8 = C[N+](C)(C)CCCCCCCC*; Thp = NC1(C(=O)O)CCOCC1; X17 = C[N+]1(CC*)CCOCC1; Dap = NC[C@H](N)C(=O)O; Me2NCH2CH2 = CN(C)CC*; Tfa = O=C(C(F)(F)F)*; Sar = CNCC(=O)O; CHF2 = FC(F)*

Assay: Exposed Polar Surface Area (EPSA)
Type: physicochemical
Details: SFC on Chirex 3014 column; sample 1 mM DMSO stock; read-out: EPSA
Method in brief: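 Polarity measured by SFC on a Chirex 3014 column (35 °C, 4 mL/min) with methanol/ammonium formate in CO2 as gradient eluent. Retention times were normalised to EPSA (Å^2) against eight reference compounds.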

Row | SMILES | EPSA [A^2]
1 | CC(=O)N(C)CCCC[C@@H]1NC(=O)[C@H](Cc2c[nH]c3c(C)cccc23)NC(=O)[C@H]([C@@H](C)O)NC(=O)[C@H](CC(=O)N(C)C)NC(=O)[C@@H](NC(=O)CCOCCOCC[N+](C)(C)C)C(C)(C)SSC(C)(C)[C@@H](C(=O)N[C@@H](Cc2ccc(OCCN(C)CCC[N+](C)(C)CCCC[N+](C)(C)C)cc2)C(=O)N[C@@H](Cc2ccc3ccccc3c2)C(=O)NC2(C(=O)N[C@@H](CCCCN(C)C(C)=O)C(=O)N[C@@H](CC(N)=O)C(=O)N[C@@H](Cc3cccnc3)C(=O)N(C)CC(=O)N(C)C)CCOCC2)NC1=O [compound 277, cPEG3aCO-Pen(3)-N(N(Me)2)-T-7MeW-K(NMeAc)-Pen(3)-AEF(SPD)-2Nal-THP-K(NMeAc)-N-3Pya-Sar-CON(Me)2] ({Me3N+(CH2)2O(CH2)2O(CH2)2CO}-[Pen]D(NMe2)T[Trp(7-Me)][Lys(Me)](Ac)[Pen]Y(X83)[2Nal][Thp][Lys(Me)](Ac)N[3Pal][Sar]-NMe2; disulfide 1-6) | 154
2 | CCCCCCCCCCCC(=O)N[C@@H](CCC(=O)NCCOCCOCC(=O)NCCOCCOCC(=O)NCCCC[C@@H]1NC(=O)[C@H](Cc2c[nH]c3c(C)cccc23)NC(=O)[C@H]([C@@H](C)O)NC(=O)[C@H](CC(=O)N(C)C)NC(=O)[C@@H](NC(=O)C(COCCOCC[N+](C)(C)C)NC(=O)COCCOCCNC(=O)COCCOCCNC(=O)CC[C@H](NC(=O)CCCCCCCCCCC)C(=O)O)C(C)(C)SSC(C)(C)[C@@H](C(=O)N[C@@H](Cc2ccc(OCCOCCOCC[N+](C)(C)C)cc2)C(=O)N[C@@H](Cc2ccc3ccccc3c2)C(=O)NC2(C(=O)N[C@@H](CCCCN(C)C(C)=O)C(=O)N[C@@H](CC(N)=O)C(=O)N[C@@H](Cc3cccnc3)C(=O)N(C)CC(=O)N(C)C)CCOCC2)NC1=O)C(=O)O (relative stereo) [compound 368, C12gEPEG2PEG2CO-APEG2Ser(S*)-Pen(3)-N(N(Me)2)-T-7MeW-K(PEG2PEG2gEC12)-Pen(3)-APEG3F-2Nal-THP-K(NMeAc)-N-3Pya-Sar-CON(Me)2] | 166
3 | CC(=O)NCCCC[C@@H]1NC(=O)[C@H](Cc2c[nH]c3c(C)cccc23)NC(=O)[C@H]([C@@H](C)O)NC(=O)[C@H](CC(N)=O)NC(=O)[C@@H](NC(=O)COCCOCCNC(=O)COCCOCCNC(=O)COc2ccc(-c3ccc(F)cc3F)cc2C(=O)O)C(C)(C)SSC(C)(C)[C@@H](C(=O)N[C@@H](Cc2ccc(OCCCCC[N+](C)(C)C)cc2)C(=O)N[C@@H](Cc2ccc3ccccc3c2)C(=O)NC2(C(=O)N[C@@H](CCCCN(C)C(C)=O)C(=O)N[C@@H](CC(N)=O)C(=O)N[C@@H](Cc3cccnc3)C(=O)N(C)CC(N)=O)CCOCC2)NC1=O [compound 490, DFNPEG2PEG2CO-Pen(3)-N-T-7MeW-K(Ac)-Pen(3)-TMAPF-2Nal-THP-K(Ac)-N-3Pya-Sar-CONH2] | 182
4 | CC(=O)NCCCC[C@@H]1NC(=O)[C@H](Cc2c[nH]c3ccccc23)NC(=O)[C@H]([C@@H](C)O)NC(=O)[C@H](CC(N)=O)NC(=O)[C@@H](NC(=O)[C@@H](CCCNC(=N)N)NC(C)=O)C(C)(C)SSC(C)(C)[C@@H](C(=O)N[C@@H](Cc2ccc(OCC[N+]3(C)CCOCC3)cc2)C(=O)N[C@@H](Cc2ccc3ccccc3c2)C(=O)NC2(C(=O)N[C@@H](CCC(=O)O)C(=O)N[C@@H](CC(N)=O)C(=O)N[C@@H](Cc3cccnc3)C(=O)N(C)CC(N)=O)CCOCC2)NC1=O [compound 429] (Ac-[dR][Pen]NTWK(Ac)[Pen]Y(X17)[2Nal][Thp]EN[3Pal][Sar]-NH2; disulfide 2-7) | 192
5 | CC(=O)N(C)CCCC[C@@H]1NC(=O)[C@H](Cc2c[nH]c3c(C(F)(F)F)cccc23)NC(=O)[C@H]([C@@H](C)O)NC(=O)[C@H](CC(=O)N(C)C)NC(=O)[C@@H](NC(=O)C(F)(F)F)C(C)(C)SSC(C)(C)[C@@H](C(=O)N[C@@H](Cc2ccc(OCCN(C)C)cc2)C(=O)N[C@@H](Cc2ccc3ccccc3c2)C(=O)NC2(C(=O)N[C@@H](CCCCN(C)C(C)=O)C(=O)N[C@@H](CC(N)=O)C(=O)N[C@@H](Cc3cccnc3)C(=O)N(C)CC(=O)N(C)C)CCOCC2)NC1=O [compound 95, CF3CO-Pen(3)-N(N(Me)2)-T-7CF3W-K(NMeAc)-Pen(3)-AEF(N(Me)2)-2Nal-THP-K(NMeAc)-N-3Pya-Sar-CON(Me)2] (Tfa-[Pen]D(NMe2)T[Trp(7-CF3)][Lys(Me)](Ac)[Pen]Y(Me2NCH2CH2)[2Nal][Thp][Lys(Me)](Ac)N[3Pal][Sar]-NMe2; disulfide 1-6 (inferred)) | 131
6 | COCCOCCOCC[N+](C)(C)CCc1cn(CCOc2ccc(C[C@H](NC(=O)[C@H]3NC(=O)[C@H](CCCCN(C)C(C)=O)NC(=O)[C@H](Cc4c[nH]c5c(C)cccc45)NC(=O)[C@H]([C@@H](C)O)NC(=O)[C@H](CC(=O)N(C)C)NC(=O)[C@@H](NC(=O)CCOCCOCC[N+](C)(C)C)C(C)(C)SSC3(C)C)C(=O)N[C@@H](Cc3ccc4ccccc4c3)C(=O)NC3(C(=O)N[C@@H](CCCCN(C)C(C)=O)C(=O)N[C@@H](CC(N)=O)C(=O)N[C@@H](Cc4cccnc4)C(=O)N(C)CC(=O)N(C)C)CCOCC3)cc2)nn1 [compound 283, cPEG3aCO-Pen(3)-N(N(Me)2)-T-7MeW-K(NMeAc)-Pen(3)-Y(OTzlChmPEG3)-2Nal-THP-K(NMeAc)-N-3Pya-Sar-CON(Me)2] ({Me3N+(CH2)2O(CH2)2O(CH2)2CO}-[Pen]D(NMe2)T[Trp(7-Me)][Lys(Me)](Ac)[Pen]Y(X9)[2Nal][Thp][Lys(Me)](Ac)N[3Pal][Sar]-NMe2; disulfide 1-6) | 146

Now from value to compound:

Row | EPSA [A^2] | SMILES
7 | 156 | CC(=O)NCCCC[C@@H]1NC(=O)[C@H](Cc2c[nH]c3c(C)cccc23)NC(=O)[C@H]([C@@H](C)O)NC(=O)[C@H](CC(N)=O)NC(=O)[C@@H](NC(=O)C(F)(F)F)C(C)(C)SSC(C)(C)[C@@H](C(=O)N[C@@H](Cc2ccc(OC(F)F)cc2)C(=O)N[C@@H](Cc2ccc3ccccc3c2)C(=O)NC2(C(=O)N[C@@H](CCCCNC(C)=O)C(=O)N[C@@H](CC(N)=O)C(=O)N[C@@H](Cc3cccnc3)C(=O)N(C)CC(N)=O)CCOCC2)NC1=O [compound 54] (Tfa-[Pen]NT[Trp(7-Me)]K(Ac)[Pen]Y(CHF2)[2Nal][Thp]K(Ac)N[3Pal][Sar]-NH2; disulfide 1-6 (inferred))
8 | 163 | CC(=O)NCCCC[C@@H]1NC(=O)[C@H](Cc2c[nH]c3c(C)cccc23)NC(=O)[C@H]([C@@H](C)O)NC(=O)[C@H](CC(N)=O)NC(=O)[C@@H](NC(C)=O)C(C)(C)SSC(C)(C)[C@@H](C(=O)N[C@@H](Cc2ccc(OCCCCCCCC[N+](C)(C)C)cc2)C(=O)N[C@@H](Cc2ccc3ccccc3c2)C(=O)NC2(C(=O)N[C@@H](CCC(=O)O)C(=O)N[C@@H](CC(N)=O)C(=O)N[C@@H](Cc3cccnc3)C(=O)N(C)CC(N)=O)CCOCC2)NC1=O [compound 457] (Ac-[Pen]NT[Trp(7-Me)]K(Ac)[Pen]Y(X8)[2Nal][Thp]EN[3Pal][Sar]-NH2; disulfide 1-6 (inferred))
9 | 174 | CC(=O)NCCCC[C@@H]1NC(=O)[C@H](Cc2c[nH]c3c(C)cccc23)NC(=O)[C@H]([C@@H](C)O)NC(=O)[C@H](CC(N)=O)NC(=O)[C@@H](NC(C)=O)C(C)(C)SSC(C)(C)[C@@H](C(=O)N[C@@H](Cc2ccc(OCC[N+]3(C)CCOCC3)cc2)C(=O)N[C@@H](Cc2ccc3ccccc3c2)C(=O)NC2(C(=O)N[C@@H](CCC(=O)O)C(=O)N[C@@H](CC(N)=O)C(=O)N[C@@H](Cc3cccnc3)C(=O)N(C)CC(N)=O)CCOCC2)NC1=O [compound 431] (Ac-[Pen]NT[Trp(7-Me)]K(Ac)[Pen]Y(X17)[2Nal][Thp]EN[3Pal][Sar]-NH2; disulfide 1-6 (inferred))
10 | 167 | CC(=O)NCCCC[C@@H]1NC(=O)[C@H](Cc2c[nH]c3c(C)cccc23)NC(=O)[C@H]([C@@H](C)O)NC(=O)[C@H](CC(N)=O)NC(=O)[C@@H](NC(=O)[C@@H](CCCCNC(=O)CCCCC[N+](C)(C)C)NC(C)=O)C(C)(C)SSC(C)(C)[C@@H](C(=O)N[C@@H](Cc2ccc(OCCN)cc2)C(=O)N[C@@H](Cc2ccc3ccccc3c2)C(=O)NC2(C(=O)N[C@@H](CCC(=O)O)C(=O)N[C@@H](CC(N)=O)C(=O)N[C@@H](Cc3cccnc3)C(=O)N(C)CC(N)=O)CCOCC2)NC1=O [compound 83] (Ac-[dK](Hexanoyl(6-NMe3+))[Pen]NT[Trp(7-Me)]K(Ac)[Pen][AEF][2Nal][Thp]EN[3Pal][Sar]-NH2; disulfide 2-7 (inferred))
11 | 156 | CC(=O)NCCCC[C@@H]1NC(=O)[C@H](Cc2c[nH]c3c(C)cccc23)NC(=O)[C@H]([C@@H](C)O)NC(=O)[C@H](CC(N)=O)NC(=O)[C@@H](NC(C)=O)C(C)(C)SSC(C)(C)[C@@H](C(=O)N[C@@H](Cc2ccc(OCCN(C)C)cc2)C(=O)N[C@@H](Cc2ccc3ccccc3c2)C(=O)NC2(C(=O)N[C@@H](CNC(C)=O)C(=O)N[C@@H](CC(N)=O)C(=O)N[C@@H](Cc3cccnc3)C(=O)N(C)CC(N)=O)CCOCC2)NC1=O [compound 102] (Ac-[Pen]NT[Trp(7-Me)]K(Ac)[Pen]Y(Me2NCH2CH2)[2Nal][Thp][Dap](Ac)N[3Pal][Sar]-NH2; disulfide 1-6)
12 | 164 | CC(=O)NCCCC[C@@H]1NC(=O)[C@H](Cc2c[nH]c3c(C)cccc23)NC(=O)[C@H]([C@@H](C)O)NC(=O)[C@H](CC(N)=O)NC(=O)[C@H](NC(C)=O)CSSC[C@@](C)(C(=O)N[C@@H](Cc2ccc(OCCCCC[N+](C)(C)C)cc2)C(=O)N[C@@H](Cc2ccc3ccccc3c2)C(=O)NC2(C(=O)N[C@@H](CCCCNC(C)=O)C(=O)N[C@@H](CC(N)=O)C(=O)N[C@@H](Cc3cccnc3)C(=O)N(C)CC(N)=O)CCOCC2)NC1=O [compound 478, MeCO-C(3)-N-T-7MeW-K(Ac)-aMeC(3)-TMAPF-2Nal-THP-K(Ac)-N-3Pya-Sar-CONH2]
